{
  "source": "paper PMC4015918",
  "about": "“Conjugation to a SMAC mimetic potentiates sigma-2 ligand induced tumor cell death in ovarian cancer” (Molecular Cancer, 2014)",
  "tested_on": "TNFα mRNA",
  "test": "Quantitative RT-PCR of TNFα mRNA",
  "format": "cell-based",
  "settings": "SKOV3 cells, 1 μM and 3 μM, 4-24 hours, normalized to GAPDH; maximal at 24 hours",
  "description": "Figure 5 SW IV-134 induces activation of the TNFα-dependent extrinsic death pathway. (A) Quantitative real-time PCR analysis of TNFα mRNA expression was done on RNA samples derived from SKOV3 cells treated with SW IV-134 (1 μM and 3 μM) for indicated time periods. All values were normalized to a GAPDH internal control (p < 0.0001, one-way ANOVA). (B) SKOV3 cells were treated with SW IV-134 (1 μM and 3 μM) and cell-culture supernatants were collected at 4, 12, and 24 hours after treatment, and subsequently examined by anti-TNFα ELISA according to manufacturer’s instructions (p < 0.0001, one-way ANOVA). (C) SKOV3 cells were treated with SW IV-134 at indicated doses either alone or in the presence of anti-TNFα blocking antibody for 18 hours. Cell viability was determined as described in the experimental methods (p < 0.019, Student’s t-test).\nSKOV3 cells were treated with SW IV-134 (1 μM, 3 μM) or vehicle-control for 4 hours, 12 hours, and 24 hours. At the end of each treatment, cells were harvested and total RNA was isolated using TRIzol reagent (Invitrogen, Grand Island, NY) and RT-PCR performed as per the protocol described before. Briefly, one microgram of RNA from each sample was reverse transcribed to cDNA with Retroscript (Ambion, Austin, TX). […] TNFα data were normalized for expression with GAPDH, and results were expressed as fold change over untreated controls.",
  "data": [
    {"smiles": "COc1ccc(C)cc1NC(=O)OC1CC2CCCC(C1)N2CCCCCCCCCCN[C@@H](C)C(=O)N[C@H](C(=O)N1CCC[C@H]1C(=O)N[C@@H]1CCCc2ccccc21)C(C)(C)C", "note": "(stereo partly shown) [SW IV-134]", "values": [
      {"measurement": "Increase in TNFα mRNA levels compared to untreated cells", "value": "20-50 fold"}
    ]}
  ]
}
